From PMC6282036, “Dual-Specificity Phosphatase CDC25B Was Inhibited by Natural Product HB-21 Through Covalently Binding to the Active Site” (Frontiers in Chemistry, 2018) come the findings set out here.

Assay [1] concerns the target T1, Cdc25B (Homo sapiens, UniProt P30305).
T1 construct: recombinant human Cdc25B
T1 sequence (P30305 1-580): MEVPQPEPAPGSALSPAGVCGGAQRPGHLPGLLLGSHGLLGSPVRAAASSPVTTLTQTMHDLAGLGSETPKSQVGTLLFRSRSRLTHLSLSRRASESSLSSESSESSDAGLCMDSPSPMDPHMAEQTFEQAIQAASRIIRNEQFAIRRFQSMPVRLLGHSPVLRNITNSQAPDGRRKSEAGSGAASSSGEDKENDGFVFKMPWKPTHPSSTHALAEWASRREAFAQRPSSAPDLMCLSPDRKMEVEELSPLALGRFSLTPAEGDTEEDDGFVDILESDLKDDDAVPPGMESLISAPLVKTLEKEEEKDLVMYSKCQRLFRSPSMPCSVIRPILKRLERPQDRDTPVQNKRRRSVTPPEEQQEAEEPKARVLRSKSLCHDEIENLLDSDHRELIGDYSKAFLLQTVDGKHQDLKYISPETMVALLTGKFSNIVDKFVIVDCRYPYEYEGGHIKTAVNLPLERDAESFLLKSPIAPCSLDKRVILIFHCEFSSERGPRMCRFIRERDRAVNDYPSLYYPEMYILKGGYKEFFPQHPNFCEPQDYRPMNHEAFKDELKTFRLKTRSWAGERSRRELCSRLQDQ
In words: OMFP fluorometric phosphatase assay (CycLex Cdc25B kit), positive control. Type of assay: biochemical.

Assay [2] addresses T2, Cdc25B (Homo sapiens, UniProt P30305).
T2 construct: Cdc25B catalytic domain (372–551)
T2 sequence (P30305 386-565): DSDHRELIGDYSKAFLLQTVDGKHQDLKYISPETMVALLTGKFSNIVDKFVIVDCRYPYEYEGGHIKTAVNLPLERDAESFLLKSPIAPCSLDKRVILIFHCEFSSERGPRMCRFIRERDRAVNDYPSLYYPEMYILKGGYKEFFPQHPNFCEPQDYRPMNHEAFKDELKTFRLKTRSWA
The assay is described as follows: intact protein ESI-Q-TOF MS of covalent adducts; IC50 from OMFP fluorometric assay with recombinant Cdc25B. Type of assay: biochemical.

As for `CNC1=CC(=O)c2ccncc2C1=O` [Caulibugulone A], inhibition against Cdc25B [1] was half-maximal at 5.37 ± 0.45 µM (IC50).
On to `C=C1C(=O)O[C@@H]2C[C@H](C)C(CCC(C)=O)=C[C@H](O)[C@H]12` [HB-21], for which the IC50 at Cdc25B [2] stood at 24.8 ± 1.63 µM.
